Experimental findings from US10537555B2, “Complex of angiotensin receptor antagonist and neutral endopeptidase inhibitor” (CHENGDU EASTON BIOPHARMACEUTICALS CO., LTD., priority 2015, dated 2020) are described below.

Each structure is given as a SMILES string.

Common to all, as to assay type: physicochemical
Data set [1] in a line: Chemical stability test (HPLC purity under strong light, high temperature, high humidity). Details: Purity, Valsartan: unit not given here. An excerpt:
On Day 5 and Day 10, respectively, test samples were taken to test their purity.

The nature of data set [2]: Hygroscopy test (25±1° C., RH 80%±2%, 24 hours). Particulars: for Appearance at Hour Twenty-Four / Weight Increase: 24 hours. An excerpt: The results are in Table XII.
Data set [3] can be described thus: LCZ696 under high humidity conditions for ten days. An excerpt:
LCZ696 is highly hygroscopic. […] It is well known that hygroscopicity causes difficulties in granulations, disintegration, dissolution of the solid form during the formulation process, affecting the stability and efficacy of the drug product. Hygroscopic compounds also require more expensive and complex excipients, manufacturing processes, and storage facilities.

Turning to `CCCCC(=O)N(Cc1ccc(-c2ccccc2-c2nn[n-]n2)cc1)C(C(=O)[O-])C(C)C.CCCCC(=O)N(Cc1ccc(-c2ccccc2-c2nn[n-]n2)cc1)C(C(=O)[O-])C(C)C.CCOC(=O)C(C)CC(Cc1ccc(-c2ccccc2)cc1)NC(=O)CCC(=O)[O-].CCOC(=O)C(C)CC(Cc1ccc(-c2ccccc2)cc1)NC(=O)CCC(=O)[O-].O.O.O.O.O.[Na+].[Na+].[Na+].[Na+].[Na+].[Na+]` (stereo not shown) [Comparative Example], in data set [1] (10 days at 60° C., 25° C. RH90%±5%, or 4500 lux±500 lux), the “Change of HPLC purity in stability test” value was “only slight decreases in purities”. For the same molecule, the “Purity, Valsartan” value turned out to be 37.05 in data set [1] (Humidity 25° C. RH90%, 5 days); 37.01 in data set [1] (Humidity 25° C. RH90%, 10 days); 37.04 in data set [1] (Light 4500Lux, 5 days); 36.99 in data set [1] (Light 4500Lux, 10 days); 37.03 in data set [1] (Temperature 60° C., 5 days); 36.98 in data set [1] (Temperature 60° C., 10 days). In addition, the entries for the “Appearance at Hour Twenty-Four” value in data set [2] and in data set [2] (listed as comparative example) were “Almost a liquid” and “almost became a liquid”, respectively. Besides, the “Weight Increase” value in data set [2] is listed as 22.34%; in data set [2] (listed as comparative example) it was “more than 15%”. Besides, the “Appearance at Hour Zero” value in data set [2] (hour zero) is “Off white powder”. Further, the “Hygroscopicity, physical form after exposure” value in data set [3] is “absorbs water and turns into a liquid form”.
